Holding throughout (type): in vivo
Assay [1] relates to serum cholesterol. The assay can be described thus: Cholesterol lowering activity in the rat (high cholesterol diet). The settings on record: po, 168 h, p.o., 7 consecutive days, read-out: daily dose that significantly lowers serum cholesterol. As for the experimental part: Cholesterol lowering activity is determined in the rat as follows:
(§1) Male Sprague-Dawley rats (230-250 g) (Taconic Farms) are maintained ad libium on water and a high cholesterol diet (1.5% cholesterol and 0.5% cholic acid) for two weeks prior to and during the 7-day treatment period. Groups of animals are treated orally by gavage with the vehicle alone or with test compound for 7 consecutive days. After the host dose, animals are fasted for 18 hours and blood is collected. Blood samples are centrifuged at 2500 rpm for 10 minutes to prepare plasma for total cholesterol determination as well as LDL and HDL cholesterol concentrations. HDL values are determined after LDL/VLDL precipitation (Warnick and Albers, 1978). All samples are analyzed enzymatically for cholesterol with a diagnostic reagent kit (Sigma Chemical Co., St. Louis, MO). The analysis is performed on a Bio-Mek automated work station. LDL/VLDL fractions are precipitated in the following manner: 0.35 ml of plasma is aliquoted into Eppendorf tubes to which 12 μl of 2M manganese chloride, 11.2 μl of sodium heparin (Porcine Intestinal, 5000 units/ml), and 8.3 μl of normal saline are added. The samples are vortexed and are placed on ice for 15 minutes, then centrifuged at 4° C. for 10 minutes at 1300 rpm and the supernatant is enzymatically analyzed for cholesterol. […]

Assay [2] has as its system serum cholesterol. The assay can be described thus: Cholesterol-lowering activity in normocholesterolemic dogs. To be noted: Canis lupus familiaris, po, 120 h, dog, p.o., 5 days, regular chow, read-out: daily dose that significantly lowers serum cholesterol. The protocol:
as §1, with “LDL/VLDL fractions are precipitated in the following manner: 0.35 ml of plasma is aliquoted into Eppendorf tubes to which 12 μl of 2M manganese chloride, 11.2 μl of sodium heparin (Porcine Intestinal, 5000 units/ml), and 8.3 μl of normal saline are added.” left out
(§2) Cholesterol-lowering activity can also be evaluated in normocholesterolemic dogs fed regular chow following the procedure described above, by administration of test compound orally for 5 days; also in normolipomic cynomolgus monkeys.

For assay [3], the system named is serum cholesterol. The assay can be described thus: Cholesterol-lowering activity in normolipomic cynomolgus monkeys. The settings on record: Macaca fascicularis, po, monkey, p.o., read-out: daily dose that significantly lowers serum cholesterol. The protocol: as §1, with “LDL/VLDL fractions are precipitated in the following manner: 0.35 ml of plasma is aliquoted into Eppendorf tubes to which 12 μl of 2M manganese chloride, 11.2 μl of sodium heparin (Porcine Intestinal, 5000 units/ml), and 8.3 μl of normal saline are added.” left out
as §2

Turning to `CCOC(=O)C(=O)Nc1cc(C)c(Oc2ccc(O)c(C(O)c3ccc(F)cc3)c2)c(C)c1` (centres unmarked) [ethyl N-[4-[3'-[(4-fluorophenyl) hydroxymethyl]-4'-hydroxyphenoxy]-3,5-dimethylphenyl]oxamate], the minimal effective dose in the assay with serum cholesterol [1] was roughly 0.005 mg/kg/day; in the assay with serum cholesterol [2], roughly 0.01 mg/kg/day; with serum cholesterol [3], roughly 0.001 mg/kg/day.
As to `Cc1cc(NC(=O)C(=O)O)cc(C)c1Oc1ccc(O)c(C(C)C)c1` [N-[3,5-dimethyl-4-(4'-hydroxy-3'-isopropylphenoxy)-phenyl]oxamic acid], the values for the minimal effective dose with serum cholesterol [1] and in the assay on serum cholesterol [2] were roughly 0.02 mg/kg/day and roughly 0.03 mg/kg/day, respectively.

The values above are taken from patent US5401772A, “Heteroacetic acid derivatives” (Ciba-Geigy Corporation, priority 1993, dated 1995).
